Key:
[1] = Dynamic vapor sorption (DVS) hygroscopicity; assay type: physicochemical; settings: between 0% and 95% RH, 25° C.
Description: (peak temperature) which is accompanied by 5.9 wt % weight loss up to ˜150° C. in the TGA curve (FIG. 3). […] A solid is considered moderately hygroscopic when water uptake at 25° C./80% RH is between 2-15 wt % based on criteria of European Pharmacopeia. […] Form B of EP-1 trihydrate (x is 3) is a trihydrate as confirmed by single crystal analysis. The experimental XRPD pattern of Form B matches well with the simulated one from single crystal data (FIG. 6). This was also confirmed by DSC and TGA data (FIG. 7 and FIG. 8, respectively). DSC data indicates Form B dehydrates at ˜132° C. […] Form B is slightly hygroscopic as evidenced by a weight change of ˜0.3% between 0% and 95% RH (FIG. 9), (data collection was programmed from 95% RH-0% RH-95% RH at a step size of 10% RH at 25° C.).

[2] = Solid-state photostability; assay type: physicochemical
Description: The solid-state photostability of EP-1 trihydrate (x is 3) was assessed upon exposure to UV/Vis light according to ICH guidelines. Loss of claim %, loss of area %, and degradates were evaluated versus dark control samples.
Solid-State Photostability: Weighed ˜5 mg Form B into glass vials with 2 vials covered with foil as the controls. Put these 2 samples with their controls into chamber and expose them to Vis (10 Kilo lux) for 120 hrs followed by UV (10 W/m^2) for 20 hrs (per ICH guidelines). At the end of Vis, take 1 sample and 1 control out for analysis and the others were taken out after both Vis and UV exposure.

[3] = Bulk control (covered with foil), Vis Stability (1.2 Mil lux-hours)
[4] = Bulk control (covered with foil), Vis-UV stability (1.2 Mil lux-hours + 200 Watt-hours/m^2)
[5] = Bulk, Vis Stability (1.2 Mil lux-hours)
[6] = Bulk, Vis-UV stability (1.2 Mil lux-hours + 200 Watt-hours/m^2)

CC(C)N(C[C@H]1O[C@@H](n2cnc3c(N)ncnc32)[C@H](O)[C@@H]1O)[C@H]1C[C@@H](CCc2nc3cc(C(C)(C)C)ccc3[nH]2)C1 [Form B, (2R,3R,4S,5R)-2-(6-amino-9H-purin-9-yl)-5-((((1r,3S)-3-(2-(5-(tert-butyl)-1H-benzo[d]imidazol-2-yl)ethyl)cyclobutyl)(isopropyl)amino)methyl)tetrahydrofuran-3,4-diol trihydrate]
weight change (DVS) [1]: ~0.3%
% area [2, 3]: 99.7%
% claim [2, 3]: 100.0%
% area [2, 4]: 99.8%
% claim [2, 4]: 100.0%
% area [2, 5]: 99.8%
% claim [2, 5]: 101.1%
% area [2, 6]: 99.8%
% claim [2, 6]: 99.6%
solid-state photostability (in words) ([2]; bulk, full ICH photostability exposure): stable upon exposure to full ICH photostability requirement

Source: patent US11753433B2, “Methods of synthesizing substituted purine compounds” (Epizyme, Inc., priority 2013, dated 2023)
